# Tests used:
# [1] = system: human peripheral blood mononuclear cells (PBMC); assay: HMGB1-induced TNF release by human PBMC-derived macrophages; format: cell-based; conditions: differentiated human macrophages; HMGB1 6 hours; ELISA; three independent experiments in duplicate
# Method: Human PBMC were isolated by density gradient through Ficoll-Paque^TM PLUS centrifugation (Amersham Pharmacia Biotech), and suspended in RPMI 1640 containing 10% (vol/vol) heat-inactivated human serum (BioWhittaker Inc.), penicillin 100 U/ml, and streptomycin 100 μg/ml, and incubated at 37 °C in a humidified incubator with 5% CO2 atmosphere overnight. Non-adherent cells were discarded. Adherent monocytes were washed twice with PBS and were then suspended in 12-well and 24-well tissue culture plates and incubated in the same medium but now enriched with 2.5 ng/ml macrophage colony-stimulating factor for 5–7 days.[33] […]
# (§1) Concentrations of TNF and IL-6 were each determined using a commercially available enzyme-linked immunosorbent assay (ELISA) kit (R&D System Inc.) as previously described.[34] The levels of TNF or IL-6 were calculated with reference to standard curves.
# Human peripheral blood mononuclear cells (PBMC) were isolated by density gradient centrifugation through Ficoll-PaqueTM PLUS, and cultured for 5-7 days in medium containing macrophage colony-stimulating factor (2.5 ng/ml). […] The content of TNF in the cell-free medium was determined by ELISA and expressed as mean ± SEM of three independent experiments performed in duplicate. *p< 0.05, **p< 0.01 vs. control (=HMGB1 alone without added melanocortin peptide).
# [2] = system: RAW 264.7 cells; assay: HMGB1-induced TNF release by RAW 264.7 macrophage-like cells; format: cell-based, murine
# Method: Fig. 1 MECO-1 attenuates HMGB1-induced TNF release by macrophages in culture. Murine macrophage-like RAW 264.7 cells were incubated for up to 24 h with purified recombinant HMGB1 (0.1 mg/ml) in the absence or presence of MECO-1 (Panel a), or alpha-MSH (Panel b), at 10^−10 and 10^−12 M. The levels of TNF in the culture medium were determined by ELISA and expressed as mean ± SEM of two independent experiments (in duplicate). *p < 0.05, **p < 0.01 vs. control (“HMGB1 alone”). […] In panels c and d, cells were incubated with HMGB1 for 6 h with or without MECO-1 or alpha-MSH (10^−16–10^−6 M). Data represent mean ± SEM of three independent experiments performed in duplicate. With 10^−14 M peptide, results were significant at *p < 0.05, and at 10^−12 M or more were typically **p < 0.01. In our experiments, at concentrations of MECO-1, alpha-MSH, and ACTH of around 1 nM and higher, dose response curves often reverse direction, i.e., turn upward. The reversal is more clearly seen in Fig. 2. The mechanism of the reversal is not known. (Desensitization, receptor inactivation, receptor internalization, and dissociation of dimeric receptors are all plausible candidates.) As a result, the shape of the lower part of the curve and the actual inflection point may vary from experiment to experiment. This feature may be missed when results of several experiments are combined
# (§2) Murine macrophage-like RAW 264.7 cells were obtained from American Type Culture Collection, and were grown in Dulbecco’s Modified Eagle’s Medium (DMEM, Life Technologies) containing 10% (vol/vol) heat-inactivated fetal bovine serum (FBS, Hyclone Lab. Inc.), penicillin 100 U/ml, and streptomycin 100 μg/ml (BioWhittaker Inc.). Cells were suspended in medium and incubated in 24-well or 48-well tissue-culture plates overnight in a humidified incubator (37 °C, 5% CO2). Growth medium was removed and replaced by Opti-MEM I serum-free medium (Life Technologies) overnight. In the experiments, cell monolayers were stimulated with HMGB1 or LPS, in the absence or presence of MECO-1 or alpha-MSH; cell-free supernatants were assayed for TNF by ELISA or HMGB1 by western blotting.
# as §1
# Fig. 3 Antibody to MC1R blocks suppressant effect of MECO-1 and alpha-MSH. Murine macrophage-like RAW 264.7 cells were pretreated with specific antibodies (“anti-MC1R Ab”) against melanocortin-1 receptor (MC1R) for 10 min prior to addition of HMGB1 in the absence or presence of MECO-1 or alpha-MSH at 10^−12 M. At 6 h, the TNF content of the cell-free medium was determined by ELISA, and expressed as mean ± SEM of two independent experiments performed in duplicate. ACTH at the same concentration gave results that were indistinguishable from those of alpha-MSH and MECO-1 (data not shown)
# [3] = system: RAW 264.7 cells; assay: LPS-induced HMGB1 release by RAW 264.7 cells (western blot); format: cell-based, murine; conditions: LPS 100 ng/ml, peptide 10^-10 M, 16-20 hrs, four independent experiments, P < 0.01
# Method: Murine macrophage-like RAW 264.7 cells were obtained from American Type Culture Collection, and were grown in Dulbecco’s Modified Eagle’s Medium (DMEM, Life Technologies) containing 10% (vol/vol) heat-inactivated fetal bovine serum (FBS, Hyclone Lab. Inc.), penicillin 100 U/ml, and streptomycin 100 μg/ml (BioWhittaker Inc.). Cells were suspended in medium and incubated in 24-well or 48-well tissue-culture plates overnight in a humidified incubator (37 °C, 5% CO2). Growth medium was removed and replaced by Opti-MEM I serum-free medium (Life Technologies) overnight. […]
# The levels of HMGB1 in the culture medium or murine serum were measured by western immunoblotting as previously described.[30] […] The relative band intensity was quantified by using the NIH image 1.59 software. The levels of HMGB1 (expressed as % maximum effect) were calculated with reference to standard curves generated with purified rHMGB1 and expressed as mean ± SEM of four experiments.
# Murine macrophage-like RAW 264.7 cells were incubated with LPS (100 ng/ml) in the absence or presence of MECO-1 or alpha-MSH at 10^-10 M. At 16-20 hrs after stimulation, aliquots of cell-free medium were examined. HMGB1 levels in the (conditioned) culture medium were expressed as mean ± SEM of four independent experiments with the peak level (obtained with LPS) set at 100%. […]
# [4] = system: RAW 264.7 cells; assay: LPS-induced TNF release by RAW 264.7 cells; format: cell-based, murine; conditions: LPS 10 ng/ml; peptides 10^-12 M; agouti 10-10^5 pM
# Method: as §2, §1
# Fig. 2 Cytokine-induced TNF release inhibited by MECO-1. a Lipopolysaccharide (LPS), derived from the cell wall of Gram-negative bacteria, is a TLR4 and TLR2 agonist. RAW 264.7 cells were treated with MECO-1 and LPS simultaneously and incubated overnight. Supernatants were tested for TNF with ELISA. b Poly I:C, synthetic double stranded RNA, is recognized by TLR3. RAW 264.7 cells were pre-treated with MECO-1 and then stimulated with Poly I:C. Supernatants were tested in ELISA by TNF. c Peptidoglycan (PGN), another TLR2 agonist, is ubiquitous in the cell wall of bacteria. RAW 264.7 cells were pre-treated with MECO-1 and then stimulated with PGN; after overnight stimulation, supernatants were harvested and tested for TNF ELISA. d HMGB-1. Each vertical bar is the mean of three experimental points, using HMGB-1 to induce TNF release. Three sets of three experiments were used for the measurement of inhibition
# Fig. 5 a Bioactive analogues of MECO-1. Murine macrophage-like RAW 264.7 cells were incubated with lipopolysaccharide (LPS, 4 ng/ml) in the absence or presence of MECO-1 or BACTN or BACFR, synthetic peptides based on the C-termini of EF-G of Bacteroides thetaiotamicron and Bacteroides fragilis. EFG-2 refers to human mitochondrial EFG-2 (mtEFG2). For Bacteroides thetaiotamicron, we used a 38-mer consisting of residues 681–703 shown in Fig. 4c followed by 704–718 QDKLIKDFEAKQTEE. For Bacteroides fragilis, we used a 33-mer consisting of residues, 681–703 shown in Fig. 4c followed by 704–713 = QDKLIKDFES. At 6 h after stimulation, aliquots of cell-free medium were examined. In other experiments, the synthetic peptide based on human mitochondrial EF-G1 (mtEFG1) gave results indistinguishable from EF-G2 (data not shown). The precise structure of the synthetic peptides is indicated in the text (see section “Results” and Table 1). Shown is a representative experiment.
compound,measurement,setting,value
"adrenocorticotropin (SYSMEHFRWGKPVGKKRRPVKVYPNGAEDESAEAFPLEF; Corticotropin; UniProt P01189 138-176, looked up) [ACTH, mammalian melanocortin hormone ACTH (1-39), purchased from Bachem]",attenuation of HMGB-1-induced TNF release,[1],very similar results
same,suppression of HMGB-1-induced TNF release,"[2]; RAW 264.7 cells, data not shown","highly significant suppression, typically in the subpicomolar range"
same,TNF accumulation with HMGB1 on co-incubation with peptide,[2]; peptide 10^−12–10^−8 M,substantially reduced
same,LPS-induced HMGB-1 secretion,[3],indistinguishable from MECO-1 and alpha-MSH
Mouse agouti (93-132)-NH2,effect of agouti on attenuation by MECO-1 and alpha-MSH of LPS-induced TNF release,[4],reversed the attenuation
O=S(=O)(NCCNC/C=C/c1ccc(Br)cc1)c1cccc2cnccc12 [H89],effect of H89 on peptide-mediated reduction of HMGB1-induced TNF accumulation,"[2]; H89 1mM added 10 minute before, peptides 10^-10 M, 6h, two independent experiments in duplicate",abrogated the effects of the three peptides

# Reference: article PMC5684143, “New melanocortin-like peptide of E. coli can suppress inflammation via the mammalian melanocortin-1 receptor (MC1R): possible endocrine-like function for microbes of the gut” (NPJ Biofilms and Microbiomes, 2017)
